2 compounds from article PMC2362044, “A potent nonporphyrin class of photodynamic therapeutic agent: cellular localisation, cytotoxic potential and influence of hypoxia” (British Journal of Cancer, 2005) can be followed below.

The test system of data set [1] is MRC5 cells. Put plainly: Cellular uptake and clearance (fluorescence microscopy). As to conditions: MRC-5, 1 × 10^−5 M for 3 h, then drug removed. In kind it is cell-based, human. The protocol:
(§1) Cells were seeded at 30 000 cells well^−1 in chamber slides and allowed to adhere for 24 h. For the uptake studies, ADPM01 (1 × 10^−5 M) was then added to each chamber and incubated at 37°C in the dark. Following appropriate incubation periods (5 min–6 h), the cells were washed four times with media to remove all free photosensitisers. The cells were then fixed with 3.7% formaldehyde/PBS for 15 min at 37°C, after which the cells were washed twice with PBS. Mounting fluid (Vectashield) and a coverslip were then placed on each slide. […] In this case, the cells were fixed at various time points (15 min – 24 h) after removal of the drug. The slides were then viewed using an Axio fluorescent microscope (Zeiss). A DAPI filter (Band pass 356) was used to accurately count the number of cells in each field of view and a rhodamine filter (Long pass 590) was used to quantify fluorescence from ADPM01. LabWorks version 4.0 (Bioimaging Systems) was used to calculate the average fluorescence intensity of ADPM01 per cell.
(§2) Prism ([…]) was used to graph the data obtained from the MTT assays and the uptake/clearance experiments. This program allows nonlinear regression analysis and the generation of sigmoidal dose–response curves. Prism also automatically calculates EC50 values. Statistical analysis was performed using the ANOVA test (Prism). Significant differences were detected using the Bonferroni multiple comparison test. P-values <0.05 were considered statistically significant.

In data set [2] the test system is HeLa cells. The description is as above. In kind it is cell-based, human. The protocol:
as §1, §2

In data set [3] the test system is HeLa cells. The experiment in a line: Subcellular localisation by confocal laser-scanning microscopy. Type of data set: cell-based, human. As to conditions: 1 × 10^−5 M, 1 h. How it is done: Cells, grown on eight-well chamber slides (Nunc), were incubated in the dark at 37°C with 1 × 10^−5 M ADPM01 for 1 h. The medium was removed and the cells then treated with 250 nM MitoTracker Green (Molecular Probes) or 100 nM ER Tracker Blue (Molecular Probes) for 25 min. Prior to visualisation, excess probe was washed off by rinsing in PBS four times and cells were fixed in 3.7% formaldehyde/PBS. Cells were mounted as above and image analysis was performed using a LSM510 META confocal laser-scanning microscope (Zeiss) equipped with an × 40 numerical aperture 1.0 objective, with a pinhole of 100 μm in diameter being used to capture each image at a resolution of 512 × 512 pixels. MitoTracker Green was excited by a 488 nm argon laser and ER Tracker Blue was excited by a UV laser (364 nm), while ADPM01 was excited by a 543 nm helium neon laser. For simultaneous detection of MitoTracker Green and ADPM01, a 560 nm long pass filter was used in channel 1 (red) for ADPM01, while a 505–530 nm band pass filter was used in channel 2 (green) for MitoTracker Green. For dual detection of ER Tracker Blue and ADPM01, a long pass filter of 560 nm was used in channel 1 (red) for ADPM01 and a 385–470 nm band pass filter was used in channel 2 (blue) for ER Tracker Blue. […]

Data set [4] relates to MRC5 cells. The experiment in a line: MTT cell viability assay under hypoxic conditions (1% oxygen). In kind it is cell-based, human. Particulars: MRC5, hypoxia 1% oxygen; for EC50: Homo sapiens. The protocol: (§3) Cells were exposed to low oxygen conditions in a hypoxia chamber (Coy Labs). Exponentially growing cells plus media were equilibrated in the hypoxia chamber for 24 h. The hypoxia chamber consisted of an airtight glove box, with the atmosphere continuously monitored by an oxygen analyser. An oxygen concentration of 1% was maintained throughout the chamber, with the balance comprised of 5% CO2, nitrogen and water vapour from a humidified chamber.
(§4) Cells were seeded in 96-well flat-bottomed microtitre plates (5000 cells well^−1) and incubated at 37°C in a 5% CO2 incubator for 24 h. Cells were then incubated with varying concentrations of photosensitiser (1 × 10^−9 to 1 × 10^−4 M) in the dark for 3 h at 37°C. The ADPM compound-laden medium was then removed, the cells were washed with PBS and fresh culture medium was added to each well. This was followed by light irradiation with a broad-spectrum red light source (600–750 nm) via a Waldmann PDT1200L light delivery system. For this study, fluences (light exposures) of either 8 or 16 J cm^−2, at a dose rate of 80 mW cm^−2, were used. Following irradiation, the cells were incubated for a further 48 h before being assessed for cell viability by a standard MTT assay (Sigma). The subsequent colour change produced by viable cells was quantified using a plate reader (VICTOR^2 1420 multilabel HTS counter, Wallac). […] The dark toxicity of each compound was also assessed.
(§5) For cell viability experiments performed under hypoxic conditions, cells were cultured in a hypoxia chamber as described above. Varying concentrations of ADPM compounds were made using medium equilibrated within the hypoxic environment. After 3 h, the medium containing photosensitiser was removed, the cells were washed with PBS to remove excess compound and fresh, equilibrated medium was added to each well. This was followed by light irradiation under hypoxic conditions with the broad-spectrum red light source as before.
as §2
(In general: Tetrazolium assays rely on reduction of a dye to a coloured formazan, in cell work by metabolically active cells.)

Data set [5] relates to HeLa cells. Described as above. As to conditions: hypoxia 1% oxygen; for EC50: Homo sapiens. In kind it is cell-based, human. How it is done:
as §3, §4, §5, §2

A further data set deals with human tumour cell lines. Put plainly: Light-induced toxicity (MTT) assays over a broad range of cell lines. As to conditions: for EC50: Homo sapiens, read-out: EC50 values, range between the different cell lines; for EC50 values, light-induced toxicity (in words): broad range of human tumour cell lines. Type of data set: cell-based. How it is done:
All cell lines unless otherwise stated were obtained from the American Type Culture Collection. HeLa, MRC5, HT-1080, MDA-MB-231, MCF-7 and T47-D cells were cultured in minimum essential medium (MEM) supplemented with 10% (v v^−1) foetal calf serum (FCS), 1% (v v^−1) non-essential amino acids, 50 U ml^−1 penicillin, 50 μg ml^−1 streptomycin, 20 mM HEPES and 1% (v v^−1) L-glutamine (Gibco-BRL). SW480, SW620 (obtained from Professor D Croke, Royal College of Surgeons, Dublin), A2780 and A2780cp70 cells (Obtained from Professor R Brown, Cancer Research UK, Beatson Laboratories, Glasgow) were cultured in RPMI-1640 medium plus the above-mentioned supplements. All cells were maintained in 5% CO2 (v v^−1) and 21% O2 (v v^−1) at 37°C unless otherwise stated.
as §4, §2

The mark [6] stands for this setting: 0 J cm^−2, read-out: EC50 (M) (dark).
[7] abbreviates: 8 J cm^−2, read-out: EC50 (M) (8 J cm^−2).
The mark [8] stands for this setting: 16 J cm^−2, read-out: EC50 (M) (16 J cm^−2).
Setting [9] is: 8 J cm^−2, all cell lines of Table 1.
The mark [10] stands for this setting: 16 J cm^−2, all cell lines of Table 1.

Like-named read-outs stand apart in the source and are kept apart here. Some results are limits rather than exact numbers.

What is called EC50 is the concentration that produces a half-maximal response. `F[B-]1(F)n2c(-c3ccccc3)cc(-c3ccccc3)c2N=C2C(c3ccccc3)=CC(c3ccccc3)=[N+]21` [ADPM01]: the “retention 3 h post-withdrawal (clearance)” value in the data set on MRC5 cells [1] stood at 74%. Further, in the data set on HeLa cells [2] (1 × 10^−5 M for 3 h, then drug removed), the “retention at 3 h post-withdrawal (clearance)” value was 42%. For the same compound, the “cellular uptake, accumulated by 3 h” value with HeLa cells [2] (1 × 10^−5 M, 37°C in the dark, 6 h period) was greater than 90%. Further, the “co-localisation with endoplasmic reticulum (ER Tracker Blue)” value with HeLa cells [3] is “more striking co-localisation”. In addition, the EC50 in the data set with MRC5 cells [4] (setting [6]), in the data set with MRC5 cells [4] (setting [7]), in the data set on MRC5 cells [4] (setting [8]), in the data set with HeLa cells [5] (setting [6]), in the data set with HeLa cells [5] (setting [7]) and in the data set on HeLa cells [5] (setting [8]) was greater than 0.0001 M throughout. In addition, the EC50 in the data set on human tumour cell lines (setting [9]) was in the range of 2800 to 34000 nM; in the data set on human tumour cell lines (setting [10]) it was 260 to 22000 nM. For the same compound, the “efficacy (light-induced activity) at 1% oxygen level vs normoxia” value with MRC5 cells [4] and in the data set on HeLa cells [5] was “completely ablated” in each case. For the same compound, the “EC50 values, light-induced toxicity (in words)” value in the data set with human tumour cell lines is reported as “micro-molar range”.
With `COc1ccc(C2=[N+]3C(=Nc4c(-c5ccccc5)c(Br)c(-c5ccc(OC)cc5)n4[B-]3(F)F)C(c3ccccc3)=C2Br)cc1` [ADPM06], the EC50 with MRC5 cells [4] (setting [6]) is greater than 0.0001 M; in the data set with MRC5 cells [4] (setting [7]), 7.1e-06 M; in the data set on MRC5 cells [4] (setting [8]), 1.6e-06 M; in the data set with HeLa cells [5] (setting [6]) it was greater than 0.0001 M; in the data set on HeLa cells [5] (setting [7]), 6.1e-06 M; in the data set with HeLa cells [5] (setting [8]) it was 1.5e-06 M. Moreover, the figures for the EC50 with human tumour cell lines (setting [9]) and with human tumour cell lines (setting [10]) were 37 to 5400 nM and 14 to 630 nM, respectively. Besides, the “efficacy (light-induced activity) at 1% oxygen level vs normoxia” value with MRC5 cells [4] and in the data set with HeLa cells [5] was “only a partial reduction in light-induced activity” throughout. Also, in the data set on human tumour cell lines, the “EC50 values, light-induced toxicity (in words)” value is on record as “nano-molar range”.
